Active and inactive are the calls of the source. The calls are words filed in the database; no cut-off is given here.
What was measured:
HepG2 [1] = assay: Cytotoxicity against human HepG2 cells assessed as cell growth inhibition after 24 hrs by alamar blue assay; type: functional, cell-based; settings: HepG2, 24 h
HepG2 [2] = assay: Cytotoxicity against human HepG2 cells assessed as cell viability at 3 uM after 24 hrs by alamar blue assay relative to control; type: functional; settings: HepG2, 24 h, read-out: Activity
HepG2 [3] = assay: Cytotoxicity against human HepG2 cells assessed as cell viability at 3 uM after 72 hrs by alamar blue assay relative to control; type: functional; settings: HepG2, 72 h, read-out: Activity
HepG2 [4] = assay: Cytotoxicity against human HepG2 cells assessed as cell viability at 1 uM after 24 hrs by alamar blue assay relative to control; type: functional; settings: HepG2, 24 h, read-out: Activity
HepG2 [5] = assay: Cytotoxicity against human HepG2 cells assessed as cell viability at 1 uM after 72 hrs by alamar blue assay relative to control; type: functional; settings: HepG2, 72 h, read-out: Activity
epoxide hydrolase = assay: Substrate activity at epoxide hydrolase in human HepG2 cell lysate after 5 mins by Lineweaver-Burk plot analysis; type: ADME
[6] = Drug recovery in human HepG2 cell lysate at 5 mins by HPLC analysis; type: ADME, cell-based; settings: read-out: Drug recovery
[7] = Drug metabolism in human HepG2 cell lysate assessed as epoxide hydrolase-mediated 5-bromoindirubin 3'-(O-2,3-dihydroxypropyl)oxime level after 20 mins by HPLC analysis; type: ADME
[8] = Substrate activity at epoxide hydrolase in human HepG2 cell lysate assessed as 5-bromoindirubin 3'-(O-2,3-dihydroxypropyl)oxime formation at 2.5 to 6.25 uM after 5 mins by HPLC analysis; type: ADME
[9] = Drug metabolism in human HepG2 cell lysate assessed as epoxide hydrolase-mediated 5-bromoindirubin 3'-(O-2,3-dihydroxypropyl)oxime formation after 30 mins by HPLC analysis; type: ADME; settings: 0.5 h
[10] = Drug metabolism in human HepG2 cell lysate assessed as epoxide hydrolase-mediated 5-bromoindirubin 3'-(O-2,3-dihydroxypropyl)oxime formation after 30 mins by UPLC/MS analysis; type: ADME; settings: 0.5 h
[11] = Drug metabolism in human HepG2 cell lysate assessed as epoxide hydrolase-mediated oxirane hydrolysis at 20 uM measured up to 30 mins by HPLC analysis; type: ADME; settings: 0.5 h
[12] = Drug recovery in human HepG2 cell lysate by HPLC analysis; type: ADME, cell-based; settings: TDE = time-dependent effect
HepG2 [13] = assay: Retention time of the compound in human HepG2 cell lysate by HPLC analysis; type: ADME, cell-based
Homo sapiens [14] = organism: Homo sapiens; assay: Inhibition of epoxide hydrolase in human HepG2 cell lysate up to 25 uM by Kitz-Wilson method; settings: TDE = time-dependent effect
[15] = Drug metabolism in human HepG2 cell lysate assessed as epoxide hydrolase-mediated 5-bromoindirubin 3'-(O-2,3-dihydroxypropyl)oxime level by HPLC analysis; type: ADME; settings: TDE = time-dependent effect
[16] = Drug recovery in human HepG2 cell lysate after 10 to 30 mins by HPLC analysis; type: ADME, cell-based
[17] = Drug recovery in human HepG2 cell lysate measured immediately after compound addition by HPLC analysis; type: ADME, cell-based; settings: read-out: Drug recovery
Homo sapiens [18] = organism: Homo sapiens; assay: Effect on epoxide hydrolase activity in human HepG2 cell lysate measured up to 25 uM
HepG2 [19] = assay: Cytotoxicity against human HepG2 cells assessed as cell viability at 3 uM up to 72 hrs by alamar blue assay; type: functional, cell-based
[20] = Drug recovery in human HepG2 cell lysate measured up to 30 mins by HPLC analysis; type: ADME, cell-based; settings: read-out: Drug recovery
[21] = Drug metabolism in human HepG2 cell lysate assessed as epoxide hydrolase-mediated 1H,1'H-[2,3']Biindolylidene-3,2'-dione 3-[O-(2,3-dihydroxy-propyl)-oxime] level after 5 mins by HPLC analysis; type: ADME
[22] = Drug metabolism in human HepG2 cell lysate assessed as epoxide hydrolase-mediated oxirane hydrolysis at 9 uM measured up to 30 mins by HPLC analysis; type: ADME; settings: 0.5 h
[23] = Drug metabolism in human HepG2 cell lysate assessed as epoxide hydrolase-mediated 5-bromoindirubin 3'-(O-2,3-dihydroxypropyl)oxime level after 5 mins by HPLC analysis; type: ADME
[24] = Substrate activity at epoxide hydrolase in human HepG2 cell lysate assessed as 5-bromoindirubin 3'-(O-2,3-dihydroxypropyl)oxime formation at >10 uM after 5 mins by HPLC analysis; type: ADME
Homo sapiens [25] = organism: Homo sapiens; assay: Inhibition of epoxide hydrolase in human HepG2 cell lysate up to 25 uM measured after 5 to 10 mins by Kitz-Wilson method

Compound	IC50 (HepG2 [1]) [µM]	also measured
O=C1Nc2ccc(Br)cc2/C1=C1/Nc2cc(Br)ccc2C1=O	> 100	–
O=C1Nc2ccc(F)cc2/C1=C1/Nc2ccccc2C1=O	> 100	–
O=C1Nc2ccc(I)cc2/C1=C1/Nc2ccccc2/C1=N\OCC1CO1 (stereo unspecified)	3	–
O=C1Nc2cc(Br)c(Br)cc2/C1=C1/Nc2ccccc2/C1=N\OCC1CO1 (stereo unspecified)	1.9	viability at 3 µM (HepG2 [2]): 48%; viability at 3 µM (HepG2 [3]): 6.5%; viability at 1 µM (HepG2 [4]): 78%; viability at 1 µM (HepG2 [5]): 96%
COc1ccc2c(c1)/C(=C1/Nc3ccccc3/C1=N\O)C(=O)N2	6.2	–
O=C1Nc2ccccc2/C1=C1/Nc2ccc(Br)cc2C1=O	> 100	–
O=C1Nc2cc(Br)ccc2/C1=C1/Nc2cc(Br)ccc2/C1=N\O	16	–
O=C1Nc2c(Br)cc(Br)cc2/C1=C1/Nc2ccccc2/C1=N\O	6.6	–
O=C1Nc2ccccc2/C1=C1/Nc2cc(Br)ccc2/C1=N\OCC1CO1 (stereo unspecified)	4.5	–
O=C1Nc2ccccc2/C1=C1/Nc2ccc(Br)cc2/C1=N\OCC1CO1 (stereo unspecified)	3.3	–
O=C1Nc2c(Br)cccc2/C1=C1/Nc2cc(Br)ccc2/C1=N\OCC1CO1 (stereo unspecified)	> 100	–
O=C1Nc2ccc(Br)cc2/C1=C1/Nc2ccc(Br)cc2/C1=N\O	7	–
O=C1Nc2c(Br)cccc2/C1=C1/Nc2cc(Br)ccc2/C1=N\O	17	–
O=C1Nc2c(Br)cccc2/C1=C1/Nc2cc(Br)ccc2C1=O	> 100	–
O=C1Nc2c(Br)cccc2/C1=C1/Nc2ccc(Br)cc2C1=O	> 100	–
O=C1Nc2ccc(I)cc2/C1=C1/Nc2ccccc2/C1=N\O	57	–
O=C1Nc2c(Br)cccc2/C1=C1/Nc2ccccc2/C1=N\O	4.8	–
O=C1Nc2cc(Br)ccc2/C1=C1/Nc2ccc(Br)cc2C1=O	> 100	–
O=C1Nc2ccccc2/C1=C1/Nc2cc(Br)ccc2C1=O	> 100	–
O=C1Nc2ccc(F)cc2/C1=C1/Nc2ccccc2/C1=N\OCC1CO1 (stereo unspecified)	1.7	–

Compound	IC50 (HepG2 [1]) [µM]	also measured
O=C1Nc2ccc(Cl)cc2/C1=C1/Nc2ccccc2C1=O	> 100	–
O=C1Nc2cc(Br)c(Br)cc2/C1=C1/Nc2ccccc2/C1=N\O	4.4	–
O=C1Nc2ccc(F)cc2/C1=C1/Nc2ccccc2/C1=N\O	10	–
O=C1Nc2ccc(Br)cc2/C1=C1/Nc2ccccc2/C1=N\OCC1CO1 (stereo unspecified)	0.62	viability at 3 µM (HepG2 [2]): 30%; Km at 5 min (epoxide hydrolase): 3.34 µM; remaining at 5 min [6]: 88%; Drug metabolism [7]: <= 4 nmol; Activity [8]: Active; viability at 3 µM (HepG2 [3]): 4.8%; Drug metabolism [9]: Metabolite_Detected; Drug metabolism [10]: Metabolite_Detected; Drug metabolism [11]: 4 nmol; viability at 1 µM (HepG2 [4]): 39%; viability at 1 µM (HepG2 [5]): 10%; Drug recovery [12]: Tde; Retention_time (HepG2 [13]): 5.9 min; inhibition (Homo sapiens [14]): Tde; Drug metabolism [15]: Tde; Drug recovery [16]: 80%; remaining at 0 min [17]: 95%; Activity (Homo sapiens [18]): inactive
O=C1Nc2ccc(Br)cc2/C1=C1/Nc2cc(Br)ccc2/C1=N\O	> 100	–
O=C1Nc2ccc(Br)cc2/C1=C1/Nc2ccc(Br)cc2/C1=N\OCC1CO1 (stereo unspecified)	2.5	–
O=C1Nc2ccc(Cl)cc2/C1=C1/Nc2ccccc2/C1=N\O	13	–
O=C1Nc2c(Br)cccc2/C1=C1/Nc2ccc(Br)cc2/C1=N\OCC1CO1 (stereo unspecified)	10	Activity (HepG2 [19]): inactive
O=C1Nc2cc(Br)ccc2/C1=C1/Nc2ccc(Br)cc2/C1=N\OCC1CO1 (stereo unspecified)	> 100	–
O=C1Nc2cc(Br)ccc2/C1=C1/Nc2cc(Br)ccc2/C1=N\OCC1CO1 (stereo unspecified)	> 100	–
O=C1Nc2ccccc2/C1=C1/Nc2ccccc2/C1=N\OCC1CO1 (stereo unspecified)	–	viability at 3 µM (HepG2 [2]): 33%; remaining at 0.5 h [20]: 96 to 103%; Drug metabolism [21]: 7.34 nmol; Km at 5 min (epoxide hydrolase): 1.51 µM; viability at 3 µM (HepG2 [3]): 1.8%; viability at 1 µM (HepG2 [4]): 66%; viability at 1 µM (HepG2 [5]): 85%; Drug metabolism [22]: 1.8 nmol; Drug metabolism [23]: 2.24 nmol
O=C1Nc2ccc(Br)cc2/C1=C1/Nc2ccccc2/C1=N\OCC(O)CO (stereo unspecified)	9.8	Activity [24]: Not Active; inhibition (Homo sapiens [25]): inactive; Retention_time (HepG2 [13]): 3.5 min
COc1ccc2c(c1)NC(=O)/C2=C1\Nc2ccccc2\C1=N/O	21	–
O=C1Nc2c(Br)cc(Br)cc2/C1=C1/Nc2ccccc2/C1=N\OCC1CO1 (stereo unspecified)	8.8	Activity (HepG2 [19]): inactive
O=C1Nc2ccc(Br)cc2/C1=C1/Nc2ccccc2C1=O	> 100	–
O=C1Nc2c(Br)cccc2/C1=C1/Nc2ccccc2/C1=N\OCC1CO1 (stereo unspecified)	37	Activity (HepG2 [19]): inactive
O=C1Nc2cc(Br)ccc2/C1=C1/Nc2cc(Br)ccc2C1=O	> 100	–
COc1ccc2c(c1)/C(=C1/Nc3ccccc3/C1=N\OCC1CO1)C(=O)N2 (stereo unspecified)	1.6	–
O=C1Nc2cc(Br)c(Br)cc2/C1=C1/Nc2ccccc2C1=O	> 100	–
O=C1Nc2cc(Br)ccc2/C1=C1/Nc2ccc(Br)cc2/C1=N\O	3.7	–

Compound	IC50 (HepG2 [1]) [µM]	also measured
O=C1Nc2ccc(I)cc2/C1=C1/Nc2ccccc2C1=O	> 100	–
COc1ccc2c(c1)NC(=O)/C2=C1\Nc2ccccc2C1=O	> 100	–
O=C1Nc2ccccc2/C1=C1/Nc2ccccc2/C1=N\OCCCC1CO1 (stereo unspecified)	16	–
COc1cccc2c1NC(=O)/C2=C1\Nc2ccccc2C1=O	> 100	–
COc1ccc2c(c1)/C(=C1/Nc3ccccc3C1=O)C(=O)N2	> 100	–
O=C1Nc2ccc(Br)cc2/C1=C1/Nc2ccc(Br)cc2C1=O	> 100	–
COc1cccc2c1NC(=O)/C2=C1\Nc2ccccc2\C1=N/OCC1CO1 (stereo unspecified)	10	–
O=C1Nc2cc(Br)ccc2/C1=C1/Nc2ccccc2C1=O	> 100	–
O=C1Nc2ccccc2/C1=C1/Nc2cc(Br)ccc2/C1=N\O	14	–
O=C1Nc2ccccc2/C1=C1/Nc2ccc(Br)cc2/C1=N\O	11	–
O=C1Nc2c(Br)cccc2/C1=C1/Nc2ccc(Br)cc2/C1=N\O	4.9	–
O=C1Nc2ccccc2/C1=C1/Nc2ccccc2C1=O [INDIRUBIN]	> 100	–
O=C1Nc2ccc(Br)cc2/C1=C1/Nc2ccccc2/C1=N\O [INDIRUBIN 2]	6.9	–
COc1ccc2c(c1)NC(=O)/C2=C1\Nc2ccccc2\C1=N/OCC1CO1 (stereo unspecified)	61	–
O=C1Nc2c(Br)cccc2/C1=C1/Nc2ccccc2C1=O	> 100	–
O=C1Nc2cc(Br)ccc2/C1=C1/Nc2ccccc2/C1=N\OCC1CO1 (stereo unspecified)	> 100	–
O=C1Nc2ccc(Cl)cc2/C1=C1/Nc2ccccc2/C1=N\OCC1CO1 (stereo unspecified)	1.3	–
COc1cccc2c1NC(=O)/C2=C1\Nc2ccccc2\C1=N/O	5.9	–
O=C1Nc2ccc(Br)cc2/C1=C1/Nc2cc(Br)ccc2/C1=N\OCC1CO1 (stereo unspecified)	> 100	–
O=C1Nc2ccccc2/C1=C1/Nc2ccccc2/C1=N\OCCC1CO1 (stereo unspecified)	7.8	–

Reference: ChEMBL document CHEMBL4043121, “5-Bromoindirubin 3'-(O-oxiran-2-ylmethyl)oxime: A long-acting anticancer agent and a suicide inhibitor for epoxide hydrolase” (Bioorg Med Chem, 2017)
